Measurements from ChEMBL document CHEMBL4043180, “Biological evaluation of 2-pyrazolinyl-1-carbothioamide derivatives against HCT116 human colorectal cancer cell lines and elucidation on QSAR and molecular binding modes” (Bioorg Med Chem, 2017).
Calls of active or inactive are those of the source. The rule behind the calls is not given here.

Experiments:
[1] = molecular target: Bcr/Abl fusion protein (Homo sapiens) (UniProt P00519+P11274); assay: Inhibition of BCR/ABL Tyr245 phosphorylation in human K562 cells at 20 uM incubated for 6 to 24 hrs; format: cell-based
[2] = molecular target: Tyrosine-protein kinase ABL1 (Homo sapiens) (UniProt P00519); assay: Inhibition of Abl1 (unknown origin) at 10 uM
Sequence of Tyrosine-protein kinase ABL1 (Homo sapiens) (P00519 whole entry): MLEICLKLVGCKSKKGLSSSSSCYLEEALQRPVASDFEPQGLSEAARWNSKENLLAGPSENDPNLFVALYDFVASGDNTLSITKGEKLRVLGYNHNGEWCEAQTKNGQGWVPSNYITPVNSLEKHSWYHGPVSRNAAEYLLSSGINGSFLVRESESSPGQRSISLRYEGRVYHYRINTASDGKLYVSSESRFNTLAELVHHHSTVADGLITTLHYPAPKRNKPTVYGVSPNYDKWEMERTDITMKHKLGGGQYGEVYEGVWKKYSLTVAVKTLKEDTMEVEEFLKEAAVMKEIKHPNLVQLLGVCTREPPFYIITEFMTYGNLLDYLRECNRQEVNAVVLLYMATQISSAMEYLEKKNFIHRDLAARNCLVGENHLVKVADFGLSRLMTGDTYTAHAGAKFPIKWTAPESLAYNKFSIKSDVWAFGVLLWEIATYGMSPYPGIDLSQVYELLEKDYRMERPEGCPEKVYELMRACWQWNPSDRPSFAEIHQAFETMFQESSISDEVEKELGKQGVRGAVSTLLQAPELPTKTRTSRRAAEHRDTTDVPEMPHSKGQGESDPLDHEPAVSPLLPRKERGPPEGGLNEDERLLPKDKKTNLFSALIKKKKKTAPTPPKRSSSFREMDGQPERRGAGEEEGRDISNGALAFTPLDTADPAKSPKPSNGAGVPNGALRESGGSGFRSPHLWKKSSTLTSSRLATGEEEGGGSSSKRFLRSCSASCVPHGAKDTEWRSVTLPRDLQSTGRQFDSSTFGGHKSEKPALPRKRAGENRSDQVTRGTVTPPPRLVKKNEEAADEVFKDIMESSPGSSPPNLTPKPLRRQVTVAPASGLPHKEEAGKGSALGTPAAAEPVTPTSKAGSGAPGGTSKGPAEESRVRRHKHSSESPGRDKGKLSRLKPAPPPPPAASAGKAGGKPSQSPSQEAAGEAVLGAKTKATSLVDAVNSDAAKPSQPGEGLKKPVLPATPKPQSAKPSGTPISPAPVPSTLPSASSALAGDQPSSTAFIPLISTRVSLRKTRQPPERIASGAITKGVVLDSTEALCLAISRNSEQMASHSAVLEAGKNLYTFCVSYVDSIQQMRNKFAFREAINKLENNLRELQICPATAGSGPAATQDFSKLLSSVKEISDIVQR

Sequence of Bcr/Abl fusion protein (Homo sapiens) (P00519 whole entry, looked up, the tested form may be a part): as the sequence (P00519 whole entry) above
Sequence of Bcr/Abl fusion protein (Homo sapiens) (P11274 whole entry, looked up, the tested form may be a part): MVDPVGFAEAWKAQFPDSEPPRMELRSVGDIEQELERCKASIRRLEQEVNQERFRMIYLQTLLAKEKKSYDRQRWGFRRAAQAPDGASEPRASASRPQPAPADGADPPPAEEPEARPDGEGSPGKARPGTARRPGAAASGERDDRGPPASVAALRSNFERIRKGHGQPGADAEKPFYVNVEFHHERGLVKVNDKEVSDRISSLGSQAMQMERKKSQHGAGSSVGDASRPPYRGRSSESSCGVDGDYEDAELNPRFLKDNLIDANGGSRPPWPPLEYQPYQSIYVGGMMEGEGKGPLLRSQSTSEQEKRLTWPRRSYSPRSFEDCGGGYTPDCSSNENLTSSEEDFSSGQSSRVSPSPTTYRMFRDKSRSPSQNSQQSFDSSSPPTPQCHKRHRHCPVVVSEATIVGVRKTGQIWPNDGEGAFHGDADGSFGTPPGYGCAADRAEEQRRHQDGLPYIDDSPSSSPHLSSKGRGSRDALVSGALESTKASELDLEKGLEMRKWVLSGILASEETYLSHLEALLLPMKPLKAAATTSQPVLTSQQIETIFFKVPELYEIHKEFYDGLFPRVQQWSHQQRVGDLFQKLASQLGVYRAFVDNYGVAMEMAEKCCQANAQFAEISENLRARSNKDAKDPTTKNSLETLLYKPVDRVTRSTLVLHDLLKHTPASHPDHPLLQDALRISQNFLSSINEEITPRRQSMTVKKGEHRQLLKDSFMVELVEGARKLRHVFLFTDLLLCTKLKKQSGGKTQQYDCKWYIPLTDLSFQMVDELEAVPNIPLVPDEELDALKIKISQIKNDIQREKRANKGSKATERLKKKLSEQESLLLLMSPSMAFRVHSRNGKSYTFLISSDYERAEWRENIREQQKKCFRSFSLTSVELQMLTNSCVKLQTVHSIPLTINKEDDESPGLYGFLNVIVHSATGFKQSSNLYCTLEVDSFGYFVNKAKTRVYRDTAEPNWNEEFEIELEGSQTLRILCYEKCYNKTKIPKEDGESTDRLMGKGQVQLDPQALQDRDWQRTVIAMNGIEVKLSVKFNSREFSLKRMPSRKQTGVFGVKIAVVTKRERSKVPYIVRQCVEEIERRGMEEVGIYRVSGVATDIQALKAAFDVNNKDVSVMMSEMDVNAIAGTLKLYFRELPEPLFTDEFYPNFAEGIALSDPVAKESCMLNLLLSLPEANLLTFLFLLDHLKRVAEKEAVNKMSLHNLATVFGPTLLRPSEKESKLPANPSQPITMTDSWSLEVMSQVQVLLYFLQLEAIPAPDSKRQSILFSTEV

COc1cc(O)c(C2=NN(C(=S)Nc3cc(OC)c(OC)c(OC)c3)C(c3cccc4ccccc34)C2)cc1OC (configuration not stated)
inhibition [1]: Active
inhibition [2]: 93%
